In the supplement of paper PMC11451515:

Assays:
Details in all cases: 48 h
[1] = tested on: P12-Ichikawa; assay: cell viability relative to DMSO control; higher = less cytotoxic
In short: (§1)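 Leukemia cells (NOMO1 or SEM, 500 cells/well; P12-Ichikawa, 1000 cells/well) were seeded in 5 μl in 1536-well plates after at least four passages of adaptation to each medium. They received library compounds in DMSO by pin dosing, 11 threefold points from 47 μM to 0.79 nM. Luminescence with CellTiter-Glo One was read after 48 h at 37°C. Viability is stated per plate relative to DMSO wells, with cell-free wells as background.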

[2] = tested on: NOMO1; assay: as above
In short: as §1

[3] = tested on: SEM cells; assay: as above
In short: as §1

[4] = tested on: P12-Ichikawa; assay: AUC of viability dose-response curve (% viability x log10 dose units); higher = less sensitive
In short: (§2)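 Medium-adapted leukemia cells in 1536-well plates, at 500 or 1000 cells/well, were incubated for 48 h at 37°C with library compounds in DMSO at 11 threefold doses from 47 μM to 0.79 nM. CellTiter-Glo One luminescence normalised per plate to DMSO and cell-free wells was fitted with a four-parameter log-logistic model over log10 doses. Area under the curve was integrated from this fit by trapezoidal rule, with curves beyond full viability scaled and failed quality-control curves removed.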

[5] = tested on: NOMO1; assay: as above
In short: as §2

[6] = tested on: SEM cells; assay: as above
In short: as §2

N[C@@H](CC(=O)N1CCn2c(nnc2C(F)(F)F)C1)Cc1cc(F)c(F)cc1F
cell viability [%]
Details | [1] | [2] | [3]
HPLM + 10% dialyzed FBS, 0.000781 µM | 100 | 119 | 111
HPLM + 10% dialyzed FBS, 0.00234 µM | 105 | 98.7 | 113
HPLM + 10% dialyzed FBS, 0.00702 µM | 104 | 111 | 110
HPLM + 10% dialyzed FBS, 0.0211 µM | 113 | 119 | 118
HPLM + 10% dialyzed FBS, 0.0632 µM | 109 | 100 | 105
HPLM + 10% dialyzed FBS, 0.19 µM | 104 | 106 | 105
HPLM + 10% dialyzed FBS, 0.569 µM | 102 | 103 | 99.8
HPLM + 10% dialyzed FBS, 1.71 µM | 103 | 102 | 117
HPLM + 10% dialyzed FBS, 5.12 µM | 98.2 | 109 | 107
HPLM + 10% dialyzed FBS, 15.4 µM | 97 | 94.9 | 41.9
HPLM + 10% dialyzed FBS, 46.1 µM | 94.7 | 83.5 | 93.3
RPMI 5 mM glucose + 10% FBS, 0.000781 µM | 91 | 83.3 | 100
RPMI 5 mM glucose + 10% FBS, 0.00234 µM | 103 | 97.4 | 104
RPMI 5 mM glucose + 10% FBS, 0.00702 µM | 97.3 | 84.6 | 98.1
RPMI 5 mM glucose + 10% FBS, 0.0211 µM | 95.8 | 86.4 | 102
RPMI 5 mM glucose + 10% FBS, 0.0632 µM | 99.2 | 92.4 | 132
RPMI 5 mM glucose + 10% FBS, 0.19 µM | 99.7 | 84.8 | 113
RPMI 5 mM glucose + 10% FBS, 0.569 µM | 92.8 | 86 | 106
RPMI 5 mM glucose + 10% FBS, 1.71 µM | – | 83.4 | 112
RPMI 5 mM glucose + 10% FBS, 5.12 µM | 95.4 | 96.2 | 109
RPMI 5 mM glucose + 10% FBS, 15.4 µM | 89.5 | 85.1 | 50
RPMI 5 mM glucose + 10% FBS, 46.1 µM | 88.3 | 82.9 | 96.4
RPMI 5 mM glucose + 10% dialyzed FBS, 0.000781 µM | 98.4 | 103 | 96.9
RPMI 5 mM glucose + 10% dialyzed FBS, 0.00234 µM | 94.5 | 96.3 | 118
RPMI 5 mM glucose + 10% dialyzed FBS, 0.00702 µM | 97.3 | 99.5 | 103
RPMI 5 mM glucose + 10% dialyzed FBS, 0.0211 µM | 100 | 95.2 | 97.4
RPMI 5 mM glucose + 10% dialyzed FBS, 0.0632 µM | 100 | 106 | 103
RPMI 5 mM glucose + 10% dialyzed FBS, 0.19 µM | 84.9 | 91.7 | 108
RPMI 5 mM glucose + 10% dialyzed FBS, 0.569 µM | 90.9 | 93.4 | 96.8
RPMI 5 mM glucose + 10% dialyzed FBS, 1.71 µM | 89.4 | 100 | 98.8
RPMI 5 mM glucose + 10% dialyzed FBS, 5.12 µM | 91.4 | 96.2 | 92.3
RPMI 5 mM glucose + 10% dialyzed FBS, 15.4 µM | 91.3 | 94.8 | 40.1
RPMI 5 mM glucose + 10% dialyzed FBS, 46.1 µM | 88 | 79.5 | 98.6

AUC of viability dose-response curve
Details | [4] | [5] | [6]
HPLM + 10% dialyzed FBS | 463 | 451 | 448
RPMI 5 mM glucose + 10% FBS | 453 | 417 | 453
RPMI 5 mM glucose + 10% dialyzed FBS | 445 | 461 | 449

CCNC(=O)[C@H]1O[C@@H](n2cnc3c(N)nc(NCCc4ccc(CCC(=O)O)cc4)nc32)[C@H](O)[C@@H]1O
cell viability [%]
Details | [1] | [2] | [3]
HPLM + 10% dialyzed FBS, 0.000781 µM | 108 | 104 | 100
HPLM + 10% dialyzed FBS, 0.00234 µM | 97.9 | 83.1 | 90.7
HPLM + 10% dialyzed FBS, 0.00702 µM | 101 | 98.9 | 106
HPLM + 10% dialyzed FBS, 0.0211 µM | 106 | 103 | 111
HPLM + 10% dialyzed FBS, 0.0632 µM | 109 | 95.7 | 115
HPLM + 10% dialyzed FBS, 0.19 µM | 101 | 104 | 107
HPLM + 10% dialyzed FBS, 0.569 µM | 106 | 96.6 | 107
HPLM + 10% dialyzed FBS, 1.71 µM | 103 | 95.6 | 110
HPLM + 10% dialyzed FBS, 5.12 µM | 104 | 87.3 | 106
HPLM + 10% dialyzed FBS, 15.4 µM | 96.8 | 96.6 | 104
HPLM + 10% dialyzed FBS, 46.1 µM | 96.1 | 91 | 78.8
RPMI 5 mM glucose + 10% FBS, 0.000781 µM | 105 | 104 | 83.6
RPMI 5 mM glucose + 10% FBS, 0.00234 µM | 102 | 91.6 | 33.4
RPMI 5 mM glucose + 10% FBS, 0.00702 µM | 96.2 | 94 | 91.4
RPMI 5 mM glucose + 10% FBS, 0.0211 µM | 102 | 102 | 97.6
RPMI 5 mM glucose + 10% FBS, 0.0632 µM | 102 | 89.4 | 103
RPMI 5 mM glucose + 10% FBS, 0.19 µM | 97.5 | 89.3 | 108
RPMI 5 mM glucose + 10% FBS, 0.569 µM | 99.9 | 86.9 | 110
RPMI 5 mM glucose + 10% FBS, 1.71 µM | 99.6 | 90.6 | 88.1
RPMI 5 mM glucose + 10% FBS, 5.12 µM | 96.4 | 89.9 | 92
RPMI 5 mM glucose + 10% FBS, 15.4 µM | 93.3 | 90.8 | 89.6
RPMI 5 mM glucose + 10% FBS, 46.1 µM | 92.2 | 84.1 | 62.3
RPMI 5 mM glucose + 10% dialyzed FBS, 0.000781 µM | 106 | 89.3 | 88.3
RPMI 5 mM glucose + 10% dialyzed FBS, 0.00234 µM | 98.9 | 104 | 84.3
RPMI 5 mM glucose + 10% dialyzed FBS, 0.00702 µM | 107 | 100 | 101
RPMI 5 mM glucose + 10% dialyzed FBS, 0.0211 µM | 99.8 | 93.5 | 102
RPMI 5 mM glucose + 10% dialyzed FBS, 0.0632 µM | 105 | 92.3 | 116
RPMI 5 mM glucose + 10% dialyzed FBS, 0.19 µM | 97.2 | 90.8 | 116
RPMI 5 mM glucose + 10% dialyzed FBS, 0.569 µM | 108 | 96.9 | 117
RPMI 5 mM glucose + 10% dialyzed FBS, 1.71 µM | 91.3 | 88.7 | 96.3
RPMI 5 mM glucose + 10% dialyzed FBS, 5.12 µM | 101 | 94.5 | 109
RPMI 5 mM glucose + 10% dialyzed FBS, 15.4 µM | 95.9 | 78.8 | 99
RPMI 5 mM glucose + 10% dialyzed FBS, 46.1 µM | 93.3 | 87.8 | 74.8

AUC of viability dose-response curve
Details | [4] | [5] | [6]
HPLM + 10% dialyzed FBS | 465 | 458 | 470
RPMI 5 mM glucose + 10% FBS | 456 | 437 | 421
RPMI 5 mM glucose + 10% dialyzed FBS | 462 | 442 | 469
